What was measured:
[1] = test system: A49492 (Streptomyces capillispira); experiment: Antibiotic disk sensitivity test of A49492; also: key: +: a plus indicates that a zone of inhibition was formed; -: a minus sign indicates that there was no inhibition zone; type: cell-based; conditions: ISP No. 2 agar seeded with 2% vegetative inoculum; amount per disk: Erythromycin 15 μg, Keflin 30 μg, Lincomycin 2 μg, Nystatin 100 U, Polymixin B 300 U, Streptomycin 10 μg, Tetracycline 30 μg, Vancomycin 5 μg
Description: Sodium chloride and sucrose tolerance were measured using ISP No. 2 agar. Antibiotic sensitivity was determined with sensitivity discs placed onto the surface of ISP No. 2 agar plates seeded with 2% vegetative inoculum.
In the table below, the column headed "Amount" indicates the amount of the antibiotic deposited on each disk.

[2] = test system: enzyme produced by Streptomyces capillispira; experiment: Rate of enzymatic deesterification of cephalosporin methyl esters (titrimetric / spot-plate); type: biochemical
Description: Another detection method, called the spot plate method, was carried out by pipetting a carefully measured amount, usually 10 μl., of the mixture to be analyzed onto a filter paper sheet which had small zones outlined by lacquer so that liquids placed on the zones were isolated from each other. If the substrate compound was a nucleus ester, so that acylation was necessary, each zone was also spotted with 10 μl. of 2% sodium bicarbonate solution, and 20 μl. of 2.5% phenoxyacetyl chloride in petroleum ether. The spots were air-dried, and the paper sheets were overlaid on the agar surface of an assay plate which had been seeded with a spore suspension of B. subtilis. The sheets were left on the agar plates for about 45 minutes, and were then removed and the agar plates were incubated at 25° overnight. The sizes of the zones of inhibition were then measured, and the amount of cephalosporin acid in the sample was determined by comparison with the sizes of the zones produced by known amounts of the cephalosporin acid which was the product of the deesterification.
The above biological analytical methods are useful both for unpurified fermentation mixtures, and for purified enzyme preparations. Purified preparations are readily analyzed by titrimetric methods which determine the amount of acid produced by measuring the amounts of base needed to maintain constant pH during the reaction. Thus, the deesterification reaction is easily monitored with an automatic titrator by adding the enzyme preparation to an appropriate substrate solution and following the course of deesterification by the amount of base added to the sample by the automatic titrator.
The activity of the enzyme preparations in the following examples is described as a rate, usually measured in terms of (moles of substrate deesterified)/(mg. of protein or cells)(minute). In some instances, the activity of the enzyme was described in other ways, and such instances are explained in the pertinent examples.
The substrate against which enzyme activity was measured was methyl 7-amino-3-methyl-3-cephem-4-carboxylate unless otherwise stated.
In this experiment, the enzyme preparation of Example 16 was used to deesterify methyl cephalexin, and the rate of hydrolysis was measured by pH-stat titration. Reaction mixtures were prepared as shown in Example 16, except that 1 ml. of the enzyme preparation and 2 ml. of substrate solution were used, so that the final reaction mixture contained 2.5 mg./ml. of protein.
A purified enzyme preparation, prepared substantially as described in Example 15 above, and containing 0.66 mg./ml. of protein was used to deesterify methyl 7-amino(phenyl)acetamido-3-chloro-3-cephem-4-carboxylate(methyl cefaclor). […]

[3] = test system: enzyme produced by Streptomyces capillispira; experiment: Deesterification shown by paper chromatography and bioautography; type: biochemical; conditions: 3-day culture, 30°, 16-20 hours; chromatogram acylated with phenoxyacetyl chloride; plate seeded with B. subtilis
Description: The usual method made use of filter paper chromatography, with 4/1 acetonitrile/water as the solvent.
If the substrate ester was a cephalosporin nucleus ester, having only an amino group at the 7-position, then the amount of acid could not be measured directly, because the nucleus acid is not active against the test organism.
The inoculated tube was shaken at 30° for 3 days, and then 4 ml. of the culture was transferred to a 50-ml. flask. To the flask was added 1 ml. of a filter-sterilized substrate solution containing 5 mg./ml. of methyl 7-amino-3-methyl-3-cephem-4-carboxylate at pH 7.0.
The flask was then incubated with shaking at 30° for 16-20 hours to allow the enzyme to deesterify the substrate compound.
The supernatant from the centrifugation was evaluated by paper chromatography as described above, using 4/1 acetonitrile/water as the solvent.
A substrate solution containing about 2 mg./ml. of methyl 7-amino(phenyl)acetamido-3-methyl-3-cephem-4-carboxylate (methyl cephalexin) was prepared in water, at pH 7.2. […] The mixture was shaken at 30° for 4 hours, and was then analyzed by paper chromatography, overlaying the chromatograms on nutrient agar plates seeded with Sarcina lutea.

Molecule | Result (zone of inhibition, disk sensitivity) [1] | other results
CC(=O)OCC1=C(C(=O)O)N2C(=O)[C@@H](NC(=O)Cc3cccs3)[C@H]2SC1 [Keflin] | - | 
CN[C@H](CC(C)C)C(=O)N[C@H]1C(=O)N[C@@H](CC(N)=O)C(=O)N[C@H]2C(=O)N[C@H]3C(=O)N[C@H](C(=O)N[C@H](C(=O)O)c4cc(O)cc(O)c4-c4cc3ccc4O)[C@H](O)c3ccc(c(Cl)c3)Oc3cc2cc(c3O[C@@H]2O[C@H](CO)[C@@H](O)[C@H](O)[C@H]2O[C@H]2C[C@](C)(N)[C@H](O)[C@H](C)O2)Oc2ccc(cc2Cl)[C@H]1O [Vancomycin] | + | 
COC(=O)C1=C(C)CS[C@@H]2C(N)C(=O)N12 (stereo partly shown) [methyl 7-amino-3-methyl-3-cephem-4-carboxylate] |  | Km value for the enzyme [2]: about 2.3 mg./ml.; lowest reaction rate ([2]; 15°, pH 8.0, Sephacryl-purified enzyme, automatic titrator, corrected for non-enzymatic hydrolysis): 1e-05 mol/min (liter); highest reaction rate ([2]; 30°, pH 8.0, Sephacryl-purified enzyme, automatic titrator, corrected for non-enzymatic hydrolysis): 1.9×10^-5 moles of ester hydrolyzed/(minute) (liter of reaction mixture); activity of cell sonicate supernatant ([2]; supernatant containing 14.4 mg./ml. of protein, Example 15): 2.2×10^-5 moles of ester hydrolyzed/(minute) (liter); deesterification in culture, zone of inhibition after acylation [3]: zone of inhibition
Polymixin B | - | 
CN(C)C1C(=O)C(C(N)=O)=C(O)C2(O)C(=O)C3=C(O)c4c(O)cccc4C(C)(O)C3CC12 (stereo not shown) [Tetracycline] | + | 
C[C@@H]1[C@H](O)[C@@H](C)/C=C/C=C/CC/C=C/C=C/C=C/C=C/C(O[C@H]2O[C@H](C)[C@@H](O)[C@H](N)[C@@H]2O)CC2O[C@](O)(CC(O)C(O)CCC(O)CC(O)CC(O)CC(=O)O[C@H]1C)CC(O)C2C(=O)O (stereo partly shown) [Nystatin] | - | 
CCC[C@@H]1C[C@@H](C(=O)N[C@@H]([C@H]2O[C@H](SC)[C@H](O)[C@@H](O)[C@H]2O)[C@@H](C)O)N(C)C1 [Lincomycin] | - | 
CC[C@H]1OC(=O)[C@H](C)[C@@H](O[C@H]2C[C@@](C)(OC)[C@@H](O)[C@H](C)O2)[C@H](C)[C@@H](O[C@@H]2O[C@H](C)C[C@H](N(C)C)[C@H]2O)[C@](C)(O)C[C@@H](C)C(=O)[C@H](C)[C@@H](O)[C@]1(C)O [Erythromycin] | - | 
[H]/N=C(/N)N[C@H]1[C@H](O)[C@@H](O)[C@H](O[C@@H]2O[C@@H](C)[C@](O)(C=O)[C@H]2O[C@@H]2O[C@@H](CO)[C@H](O)[C@@H](O)[C@@H]2NC)[C@@H](N/C(N)=N\[H])[C@@H]1O [Streptomycin] | + | 

Reference: patent US4316955A, “Enzymatic deesterification of cephalosporin methyl esters” (Eli Lilly and Company, priority 1980, dated 1982)
